Measurements: US20230322769A1, “HETEROAROMATIC RING COMPOUND AS RET KINASE INHIBITOR, AND PREPARATION AND USE THEREOF” (JIANGSU CHIA TAI FENGHAI PHARMACEUTICAL CO., LTD., priority 2020, published 2023)
Read-outs that look alike come from different tables or passages of the source.

Legend:
Ba/F3 RET-M918T cells = test: Ba/F3 RET-M918T cell inhibition (CellTiter-Glo); type: cell-based; conditions: Mus musculus, BaF3, 72 h
Description: (§1) Activity Experiment 3: Inhibition of Ba/F3 KIF5B-RET Cells by Prepared Compounds Ba/F3 KIF5B-RET, Ba/F3KIF5B-RET-V804M, Ba/F3 RET-M918T and Ba/F3 KIF5B-RET-G810R cells growing in log phase were harvested and counted using a […]. The cell viability was determined by the trypan blue exclusion method, and the cell viability was kept over 90%. The cell concentration was adjusted, and 90 μL of the cell suspension was added to a 96-well plate. The cells in the 96-well plate were incubated overnight at 37° C. with 5% CO2 and 95% humidity. Corresponding gradient concentrations of drug solutions (the maximum concentration was 1000 nM) were added to the 96-well plate inoculated with cells at 10 μL/well. Triplicate wells were set per drug concentration, and the final concentration of DMSO was 0.1%. The drug-treated cells in the 96-well plate were incubated for another 72 h at 37° C. with 5% CO2 and 95% humidity. After the drug treatment was completed, 100 μL of CellTiter-Glo reagent was added to each well. The cell plate was shaken on an orbital shaker for 5 min to lyse the cells and then let stand at room temperature for 20 min to stabilize the luminescence signals, and then the luminescence values were read. The data were analyzed using the GraphPad Prism 5.0 software. Dose-response curves were fit to the data using nonlinear S-curve regression, and IC50 was calculated from the curves.

FGFR3 = FGFR3 (Homo sapiens (Human), UniProt P22607); test: HTRF kinase activity assay, FGFR3; type: biochemical
Chain of FGFR3 (P22607 23-806): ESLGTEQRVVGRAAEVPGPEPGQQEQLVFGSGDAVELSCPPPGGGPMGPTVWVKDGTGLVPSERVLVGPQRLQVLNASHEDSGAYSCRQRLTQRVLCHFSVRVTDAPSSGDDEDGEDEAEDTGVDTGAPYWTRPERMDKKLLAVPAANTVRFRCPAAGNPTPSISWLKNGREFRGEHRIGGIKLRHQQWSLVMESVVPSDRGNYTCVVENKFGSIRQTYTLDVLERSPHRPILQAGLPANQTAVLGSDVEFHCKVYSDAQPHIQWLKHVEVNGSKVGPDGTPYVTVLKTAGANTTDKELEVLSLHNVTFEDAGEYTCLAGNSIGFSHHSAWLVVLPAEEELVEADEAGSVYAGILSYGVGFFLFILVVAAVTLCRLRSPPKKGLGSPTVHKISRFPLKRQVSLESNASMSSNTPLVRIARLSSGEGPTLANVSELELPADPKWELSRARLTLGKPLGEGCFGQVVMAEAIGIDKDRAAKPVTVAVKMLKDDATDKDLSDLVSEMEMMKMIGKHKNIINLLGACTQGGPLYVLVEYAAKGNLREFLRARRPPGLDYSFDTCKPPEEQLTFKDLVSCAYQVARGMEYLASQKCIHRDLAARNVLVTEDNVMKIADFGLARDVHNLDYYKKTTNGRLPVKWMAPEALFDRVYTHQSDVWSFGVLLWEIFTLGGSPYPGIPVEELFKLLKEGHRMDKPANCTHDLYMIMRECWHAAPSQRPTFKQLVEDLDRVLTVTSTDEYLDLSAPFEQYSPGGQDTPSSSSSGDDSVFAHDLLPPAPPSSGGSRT
Description: (§2) Activity Experiment 8: Inhibition of FGFR Family Kinases' Activity by Prepared Compounds The compounds were assayed for activity IC50 against the FGFR family kinases. Related kinases were purchased from Carna and Signalchem.
(§3) The activity assay method for the related kinases was established by homogeneous time-resolved fluorescence (HTRF), and the inhibitory activity of the compounds was determined. A 5 μL reaction mixture was prepared, comprising 1× enzymatic buffer (Cisbio, HTRF KinEASE™-TK), 5 mM MgCl2, 1 mM DTT, 1 μM TK substrate-biotin (Cisbio, HTRF KinEASE™-TK), corresponding concentrations of ATP and related kinases, and gradient concentrations of compounds.
(§4) The kinases and compounds were pre-incubated for 10 min, and then ATP and substrate were added to start the reaction. All the enzyme-catalyzed reactions were carried out at 25° C. for 40 min. After the enzyme-catalyzed reactions were completed, 5 μL of TK antibody-cryptate and streptavidin-XL665 (the reaction concentration of streptavidin-XL665 was 62.5 nM) were added to the reaction mixtures, and the mixtures were incubated at 25° C. for another 60 min.

[1] = test system: BA/F3 KIF5B-RET graft tumor; test: Mouse subcutaneous BA/F3 KIF5B-RET graft tumor model; type: in vivo
FGFR2 = FGFR2 (Homo sapiens (Human), UniProt P21802); test: HTRF kinase activity assay, FGFR2; type: biochemical
Chain of FGFR2 (P21802 22-821): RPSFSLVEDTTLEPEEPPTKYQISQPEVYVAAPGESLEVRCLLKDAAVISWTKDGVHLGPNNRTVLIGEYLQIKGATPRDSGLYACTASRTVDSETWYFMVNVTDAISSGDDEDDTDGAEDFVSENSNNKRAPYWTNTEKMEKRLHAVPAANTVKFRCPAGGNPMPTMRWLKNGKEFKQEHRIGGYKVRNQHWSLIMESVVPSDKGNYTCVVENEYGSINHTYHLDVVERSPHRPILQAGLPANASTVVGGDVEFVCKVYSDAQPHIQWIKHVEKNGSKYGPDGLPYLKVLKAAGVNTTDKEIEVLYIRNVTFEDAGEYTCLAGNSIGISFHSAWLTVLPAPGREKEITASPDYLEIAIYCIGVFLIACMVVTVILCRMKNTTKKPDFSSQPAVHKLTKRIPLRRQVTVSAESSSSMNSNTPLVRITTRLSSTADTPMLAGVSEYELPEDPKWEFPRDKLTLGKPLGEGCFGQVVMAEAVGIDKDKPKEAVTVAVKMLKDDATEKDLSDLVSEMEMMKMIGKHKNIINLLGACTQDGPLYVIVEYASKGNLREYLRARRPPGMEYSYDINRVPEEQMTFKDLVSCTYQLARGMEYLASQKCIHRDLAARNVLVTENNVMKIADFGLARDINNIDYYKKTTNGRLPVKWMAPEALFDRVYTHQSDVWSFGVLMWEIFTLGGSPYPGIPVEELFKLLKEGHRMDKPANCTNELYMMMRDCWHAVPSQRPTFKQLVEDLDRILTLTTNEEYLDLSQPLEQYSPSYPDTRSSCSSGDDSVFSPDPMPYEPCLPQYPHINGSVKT
Description: (§5) Activity Experiment 8: Inhibition of FGFR Family Kinases' Activity by Prepared Compounds The compounds were assayed for activity IC50 against the FGFR family kinases. Related kinases were purchased from Carna and Signalchem. The activity assay method for the related kinases was established by homogeneous time-resolved fluorescence (HTRF), and the inhibitory activity of the compounds was determined. […] The kinases and compounds were pre-incubated for 10 min, and then ATP and substrate were added to start the reaction. All the enzyme-catalyzed reactions were carried out at 25° C. for 40 min. After the enzyme-catalyzed reactions were completed, 5 μL of TK antibody-cryptate and streptavidin-XL665 (the reaction concentration of streptavidin-XL665 was 62.5 nM) were added to the reaction mixtures, and the mixtures were incubated at 25° C. for another 60 min.

FGFR2 V564F = FGFR2 V564F (Homo sapiens (Human), UniProt P21802, V564F); test: HTRF kinase activity assay, FGFR2 V564F; type: biochemical
Chain of FGFR2 V564F (P21802 22-821 V564F): as the sequence (P21802 22-821) above, with V543F counted along it
Description: as §5

FGFR1 V561M = FGFR1 V561M (Homo sapiens (Human), UniProt P11362, V561M); test: HTRF kinase activity assay, FGFR1 V561M; type: biochemical
Chain of FGFR1 V561M (P11362 22-822 V561M): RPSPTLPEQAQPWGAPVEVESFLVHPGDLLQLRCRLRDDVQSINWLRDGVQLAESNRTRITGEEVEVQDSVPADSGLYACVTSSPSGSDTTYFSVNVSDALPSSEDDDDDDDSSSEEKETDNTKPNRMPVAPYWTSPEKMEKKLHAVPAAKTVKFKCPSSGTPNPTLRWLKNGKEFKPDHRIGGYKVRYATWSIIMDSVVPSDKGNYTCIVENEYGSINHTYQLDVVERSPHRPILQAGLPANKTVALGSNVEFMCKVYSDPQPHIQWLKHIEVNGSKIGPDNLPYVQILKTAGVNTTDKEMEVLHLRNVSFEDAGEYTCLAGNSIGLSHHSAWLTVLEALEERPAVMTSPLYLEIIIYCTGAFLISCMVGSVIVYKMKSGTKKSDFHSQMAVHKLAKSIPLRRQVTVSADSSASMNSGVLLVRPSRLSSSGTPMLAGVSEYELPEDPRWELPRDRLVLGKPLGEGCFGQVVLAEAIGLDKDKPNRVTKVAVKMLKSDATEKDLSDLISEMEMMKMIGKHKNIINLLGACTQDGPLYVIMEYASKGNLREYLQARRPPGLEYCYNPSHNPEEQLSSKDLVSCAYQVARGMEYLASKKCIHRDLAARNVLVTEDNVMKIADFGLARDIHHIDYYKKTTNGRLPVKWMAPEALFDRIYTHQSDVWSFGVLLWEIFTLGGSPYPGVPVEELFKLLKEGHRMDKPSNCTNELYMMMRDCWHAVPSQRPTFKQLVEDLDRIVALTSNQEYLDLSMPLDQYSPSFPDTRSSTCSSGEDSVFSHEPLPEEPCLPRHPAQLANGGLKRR
Description: as §2, §3, §4

[2] = Pharmacokinetic assay in rats; type: in vivo, rat; conditions: for CL / Vz / F / AUC(0-inf) / AUC(0-t) / Cmax / Tmax / clearance / half-life / Vd: SD male rats; for F: p.o. 5 mg/kg vs i.v. 1 mg/kg; for AUC(0-inf) / AUC(0-t) / Cmax / Tmax / clearance / half-life / Vd: rat, plasma; for Vd: read-out: Vz
FGFR3 K650E = FGFR3 K650E (Homo sapiens (Human), UniProt P22607, K650E); test: HTRF kinase activity assay, FGFR3 K650E; type: biochemical
Chain of FGFR3 K650E (P22607 23-806 K650E): as the sequence (P22607 23-806) above, with K628E counted along it
Description: as §2, §3, §4

[3] = Metabolic stability in human liver microsomes; conditions: human liver microsomes, NADPH, Table 3; for microsomal CLint at 1 µM: CLint (μL/min/mg); for half-life at 1 µM: T1/2 (min)
Ba/F3 KIF5B-RET cells = test: Ba/F3 KIF5B-RET cell inhibition (CellTiter-Glo); type: cell-based; conditions: Mus musculus, BaF3, 72 h
Description: as §1

FGFR2 N549H = FGFR2 N549H (Homo sapiens (Human), UniProt P21802, N549H); test: HTRF kinase activity assay, FGFR2 N549H; type: biochemical
Chain of FGFR2 N549H (P21802 22-821 N549H): as the sequence (P21802 22-821) above, with N528H counted along it
Description: as §5

[4] = Tissue distribution assay in mice; type: in vivo, mouse; conditions: for concentration at 4 h: male, mouse
Description: Male NVSG mice (weighing 20-25 g) were orally administered compound 94 and Loxo-292 at a dose of 30 mg/kg. The plasma and tissue samples of the liver, the brain and the lungs and the like of the animals are collected 4 h after administration. Blood plasma collection: The whole blood was collected at about 80-100 μL in EDTA-containing EP tubes and centrifuged at 4000 g for 5 min, and then the upper plasma was collected and stored at −80° C.
Tissue collection: After the animals were euthanized, the tissues were collected and snap-frozen in liquid nitrogen, 5 mL of homogenization solution (50% acetonitrile) was added per gram of tissue. The tissues were processed into homogenates in a tissue homogenizer and stored at −80° C. The concentration of compound in the plasma and tissue samples was quantified by liquid chromatography-tandem mass spectrometry (LC-MS/MS).

FGFR1 = FGFR1 (Homo sapiens (Human), UniProt P11362); test: HTRF kinase activity assay, FGFR1; type: biochemical
Chain of FGFR1 (P11362 22-822): as the sequence (P11362 22-822 V561M) above, with M540V counted along it
Description: as §2, §3, §4

[5] = 30 mg/kg b.i.d. intragastric, Day 11
[6] = 30 mg/kg b.i.d. intragastric, Day 15
[7] = NVSG mice, oral 30 mg/kg, 4 h after administration

[2H]C([2H])([2H])N1CCN(c2cc(-c3ccc(N4CC5CC(C4)N5Cc4ccc(OC)nc4)nc3)c3c(C#N)cnn3c2)CC1 [Compound 94]
IC50 (Ba/F3 RET-M918T cells): 17.1 nM
IC50 (FGFR3): 309 nM
Volume of graft tumor (mean ± SD) ([1]; 30 mg/kg b.i.d. intragastric, Day 0): 96.85 ± 2.24 mm^3
Volume of graft tumor (mean ± SD) [1, 5]: 12.19 ± 27.25 mm^3
Volume of graft tumor (mean ± SD) [1, 6]: 8.00 ± 17.89 mm^3
Volume of graft tumor (mean ± SD) ([1]; 30 mg/kg q.d. intragastric, Day 0): 96.95 ± 1.48 mm^3
Volume of graft tumor (mean ± SD) ([1]; 30 mg/kg q.d. intragastric, Day 11): 14.57 ± 23.42 mm^3
Volume of graft tumor (mean ± SD) ([1]; 30 mg/kg q.d. intragastric, Day 15): 9.73 ± 16.31 mm^3
Volume of graft tumor (mean ± SD) ([1]; 60 mg/kg q.d. intragastric, Day 0): 96.76 ± 2.34 mm^3
Volume of graft tumor (mean ± SD) ([1]; 60 mg/kg q.d. intragastric, Day 11): 6.11 ± 14.98 mm^3
Volume of graft tumor (mean ± SD) ([1]; 60 mg/kg q.d. intragastric, Day 15): 3.75 ± 9.19 mm^3
IC50 (FGFR2): 26.5 nM
IC50 (FGFR2 V564F): 3.58 nM
IC50 (FGFR1 V561M): 1400 nM
CL ([2]; p.o. 5 mg/kg): 59.4597 mL/min/kg
Vz ([2]; p.o. 5 mg/kg): 68.49214 L/kg
F [2]: 98.02%
Clearance time in rats compared with Loxo-292 ([2]; after oral administration): took longer to be cleared
Bioavailability compared with Loxo-292 ([2]; after oral administration, rats): higher bioavailability
AUC(0-inf) ([2]; iv, i.v. 1 mg/kg): 335 ng·h/mL
AUC(0-t) ([2]; iv, i.v. 1 mg/kg): 240 ng·h/mL
Cmax ([2]; iv, i.v. 1 mg/kg): 42.3 ng/mL
Tmax ([2]; iv, i.v. 1 mg/kg): 0.08 h
clearance ([2]; iv, i.v. 1 mg/kg): 51.2 mL/min/kg
half-life ([2]; iv, i.v. 1 mg/kg): 13.3 h
Vd ([2]; iv, i.v. 1 mg/kg): 57.6 L/kg
AUC(0-inf) ([2]; po, p.o. 5 mg/kg): 1640 ng·h/mL
AUC(0-t) ([2]; po, p.o. 5 mg/kg): 1020 ng·h/mL
Cmax ([2]; po, p.o. 5 mg/kg): 63.9 ng/mL
Tmax ([2]; po, p.o. 5 mg/kg): 4 h
half-life ([2]; po, p.o. 5 mg/kg): 15.8 h
IC50 (FGFR3 K650E): 36.5 nM
microsomal CLint at 1 µM [3]: 41.2 µL/min/mg
half-life at 1 µM [3]: 0.56 h
IC50 (Ba/F3 KIF5B-RET cells): 19.8 nM
IC50 (FGFR2 N549H): 2.19 nM
Concentration of compound in brain [4, 7]: 2883.99 ng/g
Concentration of compound in liver [4, 7]: 70199.89 ng/g
Concentration of compound in lung [4, 7]: 87220.49 ng/g
Concentration of compound in plasma [4, 7]: 3174.97 ng/mL
Concentration distribution in tissues of target organs of mice compared with Loxo-292 ([4]; after oral administration): higher concentration distribution
IC50 (FGFR1): 301 nM

COc1ccc(CN2C3CC2CN(c2ccc(-c4cc(OCC(C)(C)O)cn5ncc(C#N)c45)cn2)C3)cn1 [Selpercatinib, selpercatinib, reference compound]
IC50 (Ba/F3 RET-M918T cells): 20.4 nM
IC50 (FGFR3): 349 nM
Volume of graft tumor (mean ± SD) [1, 5]: 19.68 ± 17.97 mm^3
Volume of graft tumor (mean ± SD) [1, 6]: 13.59 ± 12.43 mm^3
IC50 (FGFR2): 20.6 nM
IC50 (FGFR2 V564F): 12.9 nM
IC50 (FGFR1 V561M): 1950 nM
CL ([2]; p.o. 5 mg/kg): 7.6 mL/min/kg
Vz ([2]; p.o. 5 mg/kg): 2.039 L/kg
F [2]: 66.07%
AUC(0-inf) ([2]; iv, i.v. 1 mg/kg): 3330 ng·h/mL
AUC(0-t) ([2]; iv, i.v. 1 mg/kg): 3310 ng·h/mL
Cmax ([2]; iv, i.v. 1 mg/kg): 1260 ng/mL
Tmax ([2]; iv, i.v. 1 mg/kg): 0.083 h
clearance ([2]; iv, i.v. 1 mg/kg): 5.1 mL/min/kg
Vd ([2]; iv, i.v. 1 mg/kg): 1.61 L/kg
AUC(0-inf) ([2]; po, p.o. 5 mg/kg): 11000 ng·h/mL
AUC(0-t) ([2]; po, p.o. 5 mg/kg): 10900 ng·h/mL
Cmax ([2]; po, p.o. 5 mg/kg): 1040 ng/mL
Tmax ([2]; po, p.o. 5 mg/kg): 2.67 h
half-life ([2]; po, p.o. 5 mg/kg): 3.11 h
IC50 (FGFR3 K650E): 45.9 nM
microsomal CLint at 1 µM [3]: 60.4 µL/min/mg
half-life at 1 µM [3]: 0.382 h
IC50 (Ba/F3 KIF5B-RET cells): 8.34 nM
IC50 (FGFR2 N549H): 9.26 nM
concentration at 4 h ([4]; brain, NVSG mice, oral 30 mg/kg, 4 h after administration, read-out: Concentration of compound in brain): 88.3 ng/g
concentration at 4 h ([4]; liver, NVSG mice, oral 30 mg/kg, 4 h after administration, read-out: Concentration of compound in liver): 12900 ng/g
concentration at 4 h ([4]; lung, NVSG mice, oral 30 mg/kg, 4 h after administration, read-out: Concentration of compound in lung): 7190 ng/g
concentration at 4 h ([4]; plasma, NVSG mice, oral 30 mg/kg, 4 h after administration, read-out: Concentration of compound in plasma): 14600 ng/mL
IC50 (FGFR1): 304 nM
